These results are taken from patent US10799507B2, “5-(7H-pyrrolo[2,3-d]pyrimidin-4-yl)-5-azaspiro[2.5]octane-8-carboxylic acid derivatives as novel JAK kinase inhibitors” (LEO Pharma A/S, priority 2017, dated 2020).

Holding throughout (type): biochemical
In one experiment the target is TYK2 (Homo sapiens (Human), UniProt P29597). The experiment in a line: JAK kinase assay (HTRF), TYK2. Conditions: catalytic domain, ATP at Km (13 μM). In outline: (§1)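 Catalytic-domain human kinases, GST-tagged TYK2 (aa 871-1187) and His-tagged JAK3, phosphorylate 1 μM TK Substrate-Biotin for 20-30 min at RT in 50 mM Hepes pH 7.0, 5 mM MgCl2, ATP at Km (TYK2 13 μM with 50 nM SEB; JAK3 2 μM). Phosphorylation detected by HTRF.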
TYK2, sequence (P29597 871-1187): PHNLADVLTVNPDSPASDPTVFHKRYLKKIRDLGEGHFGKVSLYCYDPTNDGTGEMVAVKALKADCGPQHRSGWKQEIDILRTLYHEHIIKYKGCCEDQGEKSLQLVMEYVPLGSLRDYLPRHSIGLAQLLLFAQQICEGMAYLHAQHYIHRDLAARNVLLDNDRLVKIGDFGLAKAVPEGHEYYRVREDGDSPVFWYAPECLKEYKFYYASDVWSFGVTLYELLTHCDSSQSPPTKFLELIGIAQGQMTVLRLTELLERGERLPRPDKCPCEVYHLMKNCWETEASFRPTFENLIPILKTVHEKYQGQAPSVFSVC
On the technique in general: Time-resolved FRET reads energy transfer from a long-lived donor to a nearby acceptor.

For another experiment, the target named is JAK1 (Homo sapiens (Human), UniProt P23458). Put plainly: JAK kinase assay (HTRF), JAK1. Conditions: catalytic domain, ATP at Km (7 μM). In outline:
(§2)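 Catalytic-domain human JAK1 (GST-tagged, aa 850-1154) or His-tagged JAK2, baculovirus-expressed, phosphorylated 1 µM biotinylated TK peptide at Km ATP (JAK1 7 µM, 10 mM MgCl2, 50 nM SEB; JAK2 4 µM, 5 mM MgCl2) in pH 7.0 Hepes, 20-30 min RT. EDTA stop; overnight streptavidin-XL665/cryptate HTRF read.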

For a further experiment, the target named is JAK3 (Homo sapiens (Human), UniProt P52333). Put plainly: JAK kinase assay (HTRF), JAK3. Particulars: catalytic domain, ATP at Km (2 μM). The method, boiled down: as §1
JAK3, sequence (P52333 822-1111): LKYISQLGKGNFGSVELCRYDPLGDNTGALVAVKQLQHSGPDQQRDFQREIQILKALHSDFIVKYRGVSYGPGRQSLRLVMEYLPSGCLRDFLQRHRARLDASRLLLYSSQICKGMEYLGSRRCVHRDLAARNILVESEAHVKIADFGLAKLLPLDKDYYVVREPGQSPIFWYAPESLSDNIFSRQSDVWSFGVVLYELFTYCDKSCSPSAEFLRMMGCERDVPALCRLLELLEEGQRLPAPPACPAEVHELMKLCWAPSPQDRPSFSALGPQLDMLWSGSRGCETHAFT
A further experiment concerns the target JAK2 (Homo sapiens (Human), UniProt O60674). Put plainly: JAK kinase assay (HTRF), JAK2. Particulars: catalytic domain, ATP at Km (4 μM). The method, boiled down:
as §2

For orientation: EC50 means the concentration needed to bring the measured effect to its halfway point. Low readings indicate a more potent agent, high ones a less potent agent.

Molecules are shown by their SMILES.

JAK2, sequence (O60674 849-1124): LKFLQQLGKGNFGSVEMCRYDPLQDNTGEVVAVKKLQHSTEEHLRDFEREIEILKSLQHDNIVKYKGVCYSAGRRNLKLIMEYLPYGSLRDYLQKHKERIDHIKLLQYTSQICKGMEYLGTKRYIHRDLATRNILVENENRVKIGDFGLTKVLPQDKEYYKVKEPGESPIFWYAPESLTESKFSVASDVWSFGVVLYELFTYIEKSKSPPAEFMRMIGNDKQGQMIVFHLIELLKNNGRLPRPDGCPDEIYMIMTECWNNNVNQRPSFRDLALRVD
JAK1, sequence (P23458 850-1154): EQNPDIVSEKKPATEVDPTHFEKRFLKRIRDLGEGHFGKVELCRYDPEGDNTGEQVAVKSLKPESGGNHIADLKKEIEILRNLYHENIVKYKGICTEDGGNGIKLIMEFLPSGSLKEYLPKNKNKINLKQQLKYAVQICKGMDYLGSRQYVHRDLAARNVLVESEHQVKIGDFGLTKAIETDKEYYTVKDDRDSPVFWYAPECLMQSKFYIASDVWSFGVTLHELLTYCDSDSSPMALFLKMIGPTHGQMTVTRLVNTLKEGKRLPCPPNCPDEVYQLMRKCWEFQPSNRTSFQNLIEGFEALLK

With `COc1cccc(CNC(=O)C2CCN(c3ncnc4[nH]ccc34)CC23CC3)c1` (stereo not drawn) [Example 119, N-[(3-methoxyphenyl)methyl]-5-(7H-pyrrolo[2,3-d]pyrimidin-4-yl)-5-azaspiro[2.5]octane-8-carboxamide], the EC50 was 539 nM on TYK2, 13.4 nM at JAK1, 71.1 nM on JAK3 and 36.8 nM on JAK2.
The matching figures for `COc1cc(C#N)ccc1[C@H](CO)NC(=O)[C@H]1CCN(c2ncnc3[nH]ccc23)CC12CC2` [Example 120, (8S)-N-[(1R)-1-(4-cyano-2-methoxy-phenyl)-2-hydroxy-ethyl]-5-(7H-pyrrolo[2,3-d]pyrimidin-4-yl)-5-azaspiro[2.5]octane-8-carboxamide]: 392 nM, 13.7 nM, 154 nM and 40.2 nM.
For `CCc1cc(C#N)ccc1[C@@H](C)NC(=O)[C@H]1CCN(c2ncnc3[nH]ccc23)CC12CC2` [Example 121, (8S)-N-[(1R)-1-(4-cyano-2-ethyl-phenyl)ethyl]-5-(7H-pyrrolo[2,3-d]pyrimidin-4-yl)-5-azaspiro[2.5]octane-8-carboxamide], the EC50 on TYK2 is 289 nM; at JAK1 it was 15.3 nM; on JAK3, 141 nM; at JAK2 it was 44.7 nM.
The matching figures for `O=C(N[C@@H](CO)c1ccccn1)[C@H]1CCN(c2ncnc3[nH]ccc23)CC12CC2` [Example 122, (8S)-N-[(1R)-2-hydroxy-1-(2-pyridyl)ethyl]-5-(7H-pyrrolo[2,3-d]pyrimidin-4-yl)-5-azaspiro[2.5]octane-8-carboxamide]: 203 nM, 16.3 nM, 153 nM and 37.3 nM.
With `C[C@H](NC(=O)[C@H]1CCN(c2ncnc3[nH]ccc23)CC12CC2)[C@H](O)c1ccc(C#N)cc1` [Example 126, (8S)-N-[(1S,2R)-2-(4-cyanophenyl)-2-hydroxy-1-methyl-ethyl]-5-(7H-pyrrolo[2,3-d]pyrimidin-4-yl)-5-azaspiro[2.5]octane-8-carboxamide], the concentration for a half-maximal effect (EC50) at TYK2 turned out to be 987 nM; on JAK1 it was 19.5 nM; on JAK3, 29.8 nM; on JAK2 it was 25.7 nM.
Taken in the same sequence, the figures for `O=C(NCc1cccnc1)C1CCN(c2ncnc3[nH]ccc23)CC12CC2` (stereo not drawn) [Example 128, N-(3-pyridylmethyl)-5-(7H-pyrrolo[2,3-d]pyrimidin-4-yl)-5-azaspiro[2.5]octane-8-carboxamide] were 1410 nM, 20.5 nM, 58.6 nM and 38.2 nM.
Taken in the same sequence, the figures for `O=C(NCC1(CO)CC(F)(F)C1)[C@H](O)CNC(=O)[C@H]1CCN(c2ncnc3[nH]ccc23)CC12CC2` [Example 129, (8S)-N-[(2R)-3-[[3,3-difluoro-1-(hydroxymethyl)cyclobutyl]methylamino]-2-hydroxy-3-oxo-propyl]-5-(7H-pyrrolo[2,3-d]pyrimidin-4-yl)-5-azaspiro[2.5]octane-8-carboxamide] were 385 nM, 21.2 nM, 41.1 nM and 37.6 nM.
The matching figures for `O=C(N[C@H](CO)C1CCCCC1)[C@H]1CCN(c2ncnc3[nH]ccc23)CC12CC2` [Example 132, (8S)-N-[(1S)-1-cyclohexyl-2-hydroxy-ethyl]-5-(7H-pyrrolo[2,3-d]pyrimidin-4-yl)-5-azaspiro[2.5]octane-8-carboxamide]: 665 nM, 25.3 nM, 162 nM and 94.5 nM.
`Cc1cc([C@@H](O)[C@H](C)NC(=O)[C@H]2CCN(c3ncnc4[nH]ccc34)CC23CC3)ncc1F` [Example 133, (8S)-N-[(1S,2S)-2-(5-fluoro-4-methyl-2-pyridyl)-2-hydroxy-1-methyl-ethyl]-5-(7H-pyrrolo[2,3-d]pyrimidin-4-yl)-5-azaspiro[2.5]octane-8-carboxamide]: the EC50 is 375 nM at TYK2, 27.3 nM on JAK1, 148 nM on JAK3 and 37.5 nM at JAK2.
